# Legend:
# [1] = Treatment of mycotoxin-infected corn kernels with aqueous ClO2 solution, then testing ground corn for mycotoxins; details: corn kernels exposed to 400 ppm aqueous ClO2 solution for two hours; untreated corn 9 ppm
# Excerpt: Applicants conducted a study in order to determine the effects of ClO2 on toxins. Applicants obtained corn infected with mycotoxins and mycotoxin-producing microorganisms. Applicants exposed the corn kernels to an aqueous ClO2 solution with a concentration of 400 ppm for two hours. Applicants drained the aqueous ClO2 solution from the corn. Applicants ground the corn and tested for the presence of mycotoxins. Applicants also ground untreated corn from the batch and tested that corn for the presence of mycotoxins.
# [2] = Application of aqueous ClO2 solution to wheat during tempering or sweating; details: 75 ppm aqueous ClO2 solution applied for 12 hours during tempering; approximately 12 ppm prior to application
# Experimental: During processing of certain grains, such as wheat, a sweating or tempering step is used. During this step, the grain is contacted with water. The grain can be contacted with water for various amounts of time. In some examples the contacting occurs over night, in other examples the contacting occurs from 12-24 hours. This can be used as an opportunity the introduce an aqueous ClO2 solution.
# Applicants conducted a study where a 75 ppm aqueous ClO2 solution was applied to wheat during tempering or sweating. The aqueous ClO2 solution was applied to the wheat for 12 hours.
# [3] = Treatment of mash from mycotoxin-infected ground corn with heated aqueous ClO2 solution, then testing mash for mycotoxins; details: mash exposed to 200 ppm aqueous ClO2 solution heated to 185° F for two hours; untreated 12 ppm
# Experimental: Applicants conducted another study in order to determine the effects of ClO2 on toxins. Applicants obtained corn infected with mycotoxins and mycotoxin-producing microorganisms. Applicants ground the corn kernels and mixed them with water to form a mash, similar to what is used in various fermentation plants. Applicants heated an aqueous ClO2 solution with a concentration of 200 ppm to 185° F. Applicants then exposed the mash to the heated aqueous chlorine dioxide solution for two hours. Applicants drained the aqueous ClO2 solution from the mash. Applicants tested the mash for the presence of mycotoxins. Applicants also tested untreated mash from the same batch for the presence of mycotoxins.
smiles,measurement,setting,value
"[O][Cl+][O-] [ClO2, chlorine dioxide]",concentration of Vomitoxin in treated corn,[1],2.3 ppm
same,concentration of Vomitoxin in wheat after application,[2],approximately 1 ppm
same,concentration of Vomitoxin in treated corn (mash),[3],0.5 ppm
